Series [1] can be described thus: Solubility at pH 7.0. It counts as physicochemical. Conditions: buffer.
The next series concerns A2780. Briefly: Antiproliferative activity against human A2780 cells after 72 hrs by cell-titer-glo assay. It counts as functional, cell-based. Conditions: A2780, 72 h.
In series [2] the target is Cyclin-dependent kinase 2/cyclin A (Homo sapiens, UniProt P24941). The experiment in a line: Inhibition of CDK2/Cyclin A. It counts as protein-complex assay.
The target in the next series is T1, Aurora kinase A (Homo sapiens, UniProt O14965).
T1 sequence (O14965 whole entry): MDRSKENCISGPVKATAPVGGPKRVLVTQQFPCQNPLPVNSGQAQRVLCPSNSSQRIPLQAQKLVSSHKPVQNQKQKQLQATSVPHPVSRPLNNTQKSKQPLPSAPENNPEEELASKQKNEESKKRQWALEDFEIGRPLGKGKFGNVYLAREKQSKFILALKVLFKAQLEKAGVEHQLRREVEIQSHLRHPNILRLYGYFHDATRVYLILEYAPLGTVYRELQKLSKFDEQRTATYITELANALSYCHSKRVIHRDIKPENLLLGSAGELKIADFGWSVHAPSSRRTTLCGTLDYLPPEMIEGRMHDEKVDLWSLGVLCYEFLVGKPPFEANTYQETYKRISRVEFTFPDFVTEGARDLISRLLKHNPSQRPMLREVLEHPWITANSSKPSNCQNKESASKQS
Briefly: Inhibition of Aurora A.

Each structure is given as a SMILES string. Converted amounts (≈) assume the structure as drawn. A value given as a limit tells only on which side of the number the result lay.

As to `CN1CCN(c2ccc(CNc3ncc4c(n3)-c3c(c(C(N)=O)nn3C)CC4)cc2)CC1`, the solubility (as a rule, how much of the substance goes into solution per volume) in series [1] was 28 µM (≈ 12.1 µg/mL). Further, the IC50 – broadly, the concentration needed to halve the response being measured – in the series on A2780 was determined as 1580 nM; in series [2], 17 nM; against Aurora kinase A, 1290 nM.
As for `CN1CCN(C(=O)N2CCC(Nc3ncc4c(n3)-c3c(c(C(N)=O)nn3C)CC4)CC2)CC1`, the solubility in series [1] was > 225 µM. Moreover, the IC50 was 1300 nM in the series with A2780, 12 nM in series [2] and 4710 nM on Aurora kinase A.
In turn, `Cn1nc(C(N)=O)c2c1-c1nc(NC3CCCC3)ncc1CC2` returned a solubility in series [1] of 13 µM (≈ 4.06 µg/mL). The IC50 in the series on A2780 was 245 nM; in series [2], 2 nM; against Aurora kinase A it was > 10000 nM.
In the same order, the values of `CNC(=O)c1nn(C)c2c1CCc1cnc(NC3CCCC3)nc1-2` are 36 µM (≈ 11.8 µg/mL), > 10000 nM, 97 nM and > 10000 nM.
In the case of `Cn1nc(C(=O)N(O)C2CCCCC2)c2c1-c1nc(NC3CCCC3)ncc1CC2`, the solubility in series [1] was < 1 µM. Besides, the IC50 with A2780 came out at 3970 nM; in series [2], 296 nM; on Aurora kinase A, 3840 nM.
On the same counts, the results for `NC(=O)c1nn(CCO)c2c1CCc1cnc(NC3CCCC3)nc1-2` are 27 µM (≈ 9.24 µg/mL), 330 nM, 8 nM and 6040 nM.
As to `Cn1nc(C(N)=O)c2c1-c1nc(NCc3ccccn3)ncc1CC2`, the solubility in series [1] was 123 µM (≈ 41.3 µg/mL). In addition, the figures for the IC50 (with A2780; in series [2]; against Aurora kinase A) were 5120 nM, 87 nM and 4640 nM, respectively.
On the same counts, the results for `CN1CCC(Nc2ncc3c(n2)-c2c(c(C(N)=O)nn2C)CC3)CC1` are > 225 µM, 2000 nM, 351 nM and > 10000 nM.
Consider `Cn1nc(C(N)=O)c2c1-c1nc(NCc3ccccc3)ncc1CC2`, for which the solubility in series [1] was > 10 µM. Moreover, the 50% inhibitory concentration (IC50) amounted to 933 nM with A2780, 51 nM in series [2] and 1000 nM at Aurora kinase A.
Take `Cn1nc(C(N)=O)c2c1-c1nc(NCc3ccc(Br)cc3)ncc1CC2`: the solubility in series [1] is < 1 µM. Also, the IC50 stood at 567 nM with A2780, 81 nM in series [2] and 1690 nM against Aurora kinase A.
In the same order, the values of `CN(O)C(=O)c1nn(C)c2c1CCc1cnc(NC3CCCC3)nc1-2` are 29 µM (≈ 9.93 µg/mL), 5530 nM, 175 nM and 3060 nM.
The molecule `CN1CCN(c2cccc(CNc3ncc4c(n3)-c3c(c(C(N)=O)nn3C)CC4)c2)CC1` came in with a solubility in series [1] of 210 µM (≈ 90.8 µg/mL). Moreover, the IC50 turned out to be 920 nM in the series with A2780, 104 nM in series [2] and 2140 nM at Aurora kinase A.
For `NC(=O)c1nn(CC(F)(F)F)c2c1CCc1cnc(NC3CCCC3)nc1-2`, the solubility in series [1] was < 1 µM. Further, the IC50 was 370 nM with A2780, 5 nM in series [2] and > 10000 nM on Aurora kinase A.
In the case of `Cn1nc(C(=O)N(O)Cc2ccccc2)c2c1-c1nc(NC3CCCC3)ncc1CC2`, the solubility in series [1] is < 1 µM. Moreover, the IC50 in the series on A2780 worked out at 6140 nM; in series [2], 1370 nM; against Aurora kinase A, 4560 nM.
In the same order, the values of `CNC(=O)c1nn(C2CCN(C)CC2)c2c1CCc1cnc(NC3CCCC3)nc1-2` are 182 µM (≈ 74.5 µg/mL), 1590 nM, 59 nM and > 10000 nM.
As for `CC(=O)N1CCC(n2nc(C(N)=O)c3c2-c2nc(NC4CCCC4)ncc2CC3)CC1`, the solubility in series [1] stood at 179 µM (≈ 75.8 µg/mL). Moreover, the IC50 with A2780 came out at 70 nM; in series [2] it was 7 nM; against Aurora kinase A, 1970 nM.
In the case of `CNC(=O)c1nn(C)c2c1CCc1cnc(NC3CCN(C(=O)N4CCN(C)CC4)CC3)nc1-2`, the solubility in series [1] is > 10 µM. Also, the IC50 in the series on A2780 is > 10000 nM; in series [2] it was 1120 nM; against Aurora kinase A it was > 10000 nM.
As to `CNC(=O)c1nn(C)c2c1CCc1cnc(NC3CCCCC3)nc1-2`, in series [1], the solubility is 50 µM (≈ 17 µg/mL). The IC50 with A2780 was 8600 nM; against Aurora kinase A, > 10000 nM.
Regarding `Cn1nc(C(N)=O)c2c1-c1nc(N)ncc1CC2`, the solubility in series [1] was > 225 µM. For the same molecule, the values for the IC50 (in the series with A2780; in series [2]; at Aurora kinase A) were 2200 nM, > 10000 nM and > 10000 nM, respectively.
`Cn1nc(C(N)=O)c2c1-c1nc(NCc3ccncc3)ncc1CC2`: the concentration in solution in series [1] (solubility) was 222 µM (≈ 74.5 µg/mL). Further, the 50% inhibitory concentration (IC50) is 1240 nM in the series with A2780, 21 nM in series [2] and 1920 nM against Aurora kinase A.
`CN(C)CCN(C)C(=O)c1nn(C)c2c1CCc1cnc(NC3CCCC3)nc1-2` yielded a solubility in series [1] of 189 µM (≈ 75.1 µg/mL). In addition, the IC50 in the series on A2780 is 5170 nM; in series [2], > 10000 nM; at Aurora kinase A it was > 10000 nM.
Molecule `NC(=O)c1nn(-c2ccccn2)c2c1CCc1cnc(NC3CCCC3)nc1-2` displayed a solubility in series [1] of 4.9 µM (≈ 1.84 µg/mL). For the same molecule, the IC50 in the series on A2780 is 2160 nM; in series [2], 52 nM; on Aurora kinase A, > 10000 nM.
In series [1], `CN1CCC(n2nc(C(N)=O)c3c2-c2nc(NC4CCCC4)ncc2CC3)CC1` came in with a solubility of 181 µM (≈ 71.6 µg/mL). For the same molecule, the IC50 with A2780 is 46 nM; in series [2], 6 nM; against Aurora kinase A it was > 10000 nM.
In the same order, the values of `COc1cccc(CNc2ncc3c(n2)-c2c(c(C(N)=O)nn2C)CC3)c1` are 4.4 µM (≈ 1.6 µg/mL), 1980 nM, 66 nM and 1140 nM.
In the case of `COc1ccc(CNc2ncc3c(n2)-c2c(c(C(N)=O)nn2C)CC3)cc1`, the solubility in series [1] is < 1 µM. The IC50 was determined as 4140 nM in the series on A2780, 58 nM in series [2] and 1450 nM against Aurora kinase A.
In the same order, the values of `Cn1nc(C(N)=O)c2c1-c1nc(NCc3cccnc3)ncc1CC2` are 138 µM (≈ 46.3 µg/mL), 1390 nM, 21 nM and 2310 nM.
`Cn1nc(C(N)=O)c2c1-c1nc(NCCN3CCOCC3)ncc1CC2` gave a solubility in series [1] of 214 µM (≈ 76.5 µg/mL). The IC50 is 8660 nM in the series on A2780, 209 nM in series [2] and > 10000 nM against Aurora kinase A.
For the molecule `CC(=O)Nc1ccc(CNc2ncc3c(n2)-c2c(c(C(N)=O)nn2C)CC3)cc1`, in series [1], the solubility was > 10 µM. In addition, the IC50 in the series on A2780 was determined as 903 nM; in series [2], 13 nM; against Aurora kinase A, 672 nM.
Turning to `Cn1nc(C(N)=O)c2c1-c1nc(NCCN3CCCCC3)ncc1CC2`, the concentration in solution in series [1] (solubility) came to 182 µM (≈ 64.7 µg/mL). In addition, the IC50 in the series with A2780 is 7600 nM; in series [2] it was 2490 nM; against Aurora kinase A it was > 10000 nM.
Turning to `Cn1nc(C(N)=O)c2c1-c1nc(NCc3ccc(S(C)(=O)=O)cc3)ncc1CC2`, the concentration in solution in series [1] (solubility) came to 138 µM (≈ 56.9 µg/mL). The IC50 is 2360 nM in the series with A2780, 38 nM in series [2] and 890 nM at Aurora kinase A.
In the same order, the values of `CNC(=O)c1nn(C)c2c1CCc1cnc(NC3CCN(C(C)=O)CC3)nc1-2` are > 225 µM, > 10000 nM, 32 nM and > 10000 nM.
Molecule `CCN1CCC(Nc2ncc3c(n2)-c2c(c(C(N)=O)nn2C)CC3)CC1` showed a solubility in series [1] of 221 µM (≈ 78.6 µg/mL). In addition, the IC50 is 2460 nM in the series with A2780, 149 nM in series [2] and > 10000 nM on Aurora kinase A.
For the molecule `Cn1nc(C(N)=O)c2c1-c1nc(NCCO)ncc1CC2`, the solubility in series [1] is > 225 µM. Moreover, the values for the IC50 (with A2780; in series [2]; at Aurora kinase A) were 2550 nM, 19 nM and 4600 nM, respectively.
On to `NC(=O)c1nn(-c2ccccc2)c2c1CCc1cnc(NC3CCCC3)nc1-2`, for which the solubility in series [1] is < 1 µM. In addition, the values for the IC50 (with A2780; in series [2]; on Aurora kinase A) were 480 nM, 20 nM and 4050 nM, respectively.
`CNC(=O)c1nn(C)c2c1CCc1cnc(NC3CCN(C)CC3)nc1-2` displayed a solubility in series [1] of 220 µM (≈ 78.2 µg/mL). Moreover, the IC50 in the series on A2780 was > 10000 nM; in series [2] it was 4590 nM; against Aurora kinase A, > 10000 nM.
With `CNC(=O)c1nn(C)c2c1CCc1cnc(NC3CCN(C(=O)c4ccccc4)CC3)nc1-2`, in series [1], the solubility worked out at 168 µM (≈ 74.8 µg/mL). Further, the values for the IC50 (in the series on A2780; in series [2]; at Aurora kinase A) were 822 nM, 25 nM and > 10000 nM, respectively.
Regarding `COc1ccc(-n2nc(C(N)=O)c3c2-c2nc(NC4CCCC4)ncc2CC3)cc1`, in series [1], the solubility was < 1 µM. The IC50 with A2780 came out at 557 nM; in series [2], 6 nM; against Aurora kinase A, 2310 nM.
In the same order, the values of `NC(=O)c1nn(-c2ccc(S(N)(=O)=O)cc2)c2c1CCc1cnc(NC3CCCC3)nc1-2` are 108 µM (≈ 49 µg/mL), 1000 nM, 5 nM and 442 nM.
`NC(=O)c1nn(Cc2ccccc2)c2c1CCc1cnc(NC3CCCC3)nc1-2`: the solubility in series [1] is < 1 µM. The IC50 in the series on A2780 was 840 nM; in series [2], 23 nM; on Aurora kinase A it was > 10000 nM.
Regarding `Cn1nc(C(N)=O)c2c1-c1nc(NC3CCCCC3)ncc1CC2`, the solubility in series [1] is < 1 µM. The IC50 in the series on A2780 was 410 nM; in series [2], 4 nM; on Aurora kinase A, > 10000 nM.
In turn, `CC(CN(C)C)NC(=O)c1nn(C)c2c1CCc1cnc(NC3CCCC3)nc1-2` (configuration not stated) had a solubility in series [1] of 171 µM (≈ 68 µg/mL). Also, the IC50 in the series with A2780 is > 10000 nM; in series [2], 1760 nM; against Aurora kinase A it was > 10000 nM.
Regarding `CN1CCN(C(=O)c2nn(C)c3c2CCc2cnc(NC4CCCC4)nc2-3)CC1`, in series [1], the solubility worked out at 83 µM (≈ 32.8 µg/mL). The IC50 is 506 nM with A2780, > 10000 nM in series [2] and > 10000 nM against Aurora kinase A.

For the origin of these results see ChEMBL document CHEMBL1157561, “Identification of potent pyrazolo[4,3-h]quinazoline-3-carboxamides as multi-cyclin-dependent kinase inhibitors” (J Med Chem, 2010).
